Measured values taken from US8178579B2, “Dioxanes and uses thereof” (President and Fellows of Harvard College, priority 2001, dated 2012).
Entries after “also recorded” stand apart in the source; their conditions may differ.

Target: T1, HDAC6F (Homo sapiens, UniProt Q9UBN7)
T1 construct: made in house; host or cells: TAg Jurkat cells, transient transfection, anti-FLAG M2 immunoprecipitation
T1 sequence (Q9UBN7 1-1215): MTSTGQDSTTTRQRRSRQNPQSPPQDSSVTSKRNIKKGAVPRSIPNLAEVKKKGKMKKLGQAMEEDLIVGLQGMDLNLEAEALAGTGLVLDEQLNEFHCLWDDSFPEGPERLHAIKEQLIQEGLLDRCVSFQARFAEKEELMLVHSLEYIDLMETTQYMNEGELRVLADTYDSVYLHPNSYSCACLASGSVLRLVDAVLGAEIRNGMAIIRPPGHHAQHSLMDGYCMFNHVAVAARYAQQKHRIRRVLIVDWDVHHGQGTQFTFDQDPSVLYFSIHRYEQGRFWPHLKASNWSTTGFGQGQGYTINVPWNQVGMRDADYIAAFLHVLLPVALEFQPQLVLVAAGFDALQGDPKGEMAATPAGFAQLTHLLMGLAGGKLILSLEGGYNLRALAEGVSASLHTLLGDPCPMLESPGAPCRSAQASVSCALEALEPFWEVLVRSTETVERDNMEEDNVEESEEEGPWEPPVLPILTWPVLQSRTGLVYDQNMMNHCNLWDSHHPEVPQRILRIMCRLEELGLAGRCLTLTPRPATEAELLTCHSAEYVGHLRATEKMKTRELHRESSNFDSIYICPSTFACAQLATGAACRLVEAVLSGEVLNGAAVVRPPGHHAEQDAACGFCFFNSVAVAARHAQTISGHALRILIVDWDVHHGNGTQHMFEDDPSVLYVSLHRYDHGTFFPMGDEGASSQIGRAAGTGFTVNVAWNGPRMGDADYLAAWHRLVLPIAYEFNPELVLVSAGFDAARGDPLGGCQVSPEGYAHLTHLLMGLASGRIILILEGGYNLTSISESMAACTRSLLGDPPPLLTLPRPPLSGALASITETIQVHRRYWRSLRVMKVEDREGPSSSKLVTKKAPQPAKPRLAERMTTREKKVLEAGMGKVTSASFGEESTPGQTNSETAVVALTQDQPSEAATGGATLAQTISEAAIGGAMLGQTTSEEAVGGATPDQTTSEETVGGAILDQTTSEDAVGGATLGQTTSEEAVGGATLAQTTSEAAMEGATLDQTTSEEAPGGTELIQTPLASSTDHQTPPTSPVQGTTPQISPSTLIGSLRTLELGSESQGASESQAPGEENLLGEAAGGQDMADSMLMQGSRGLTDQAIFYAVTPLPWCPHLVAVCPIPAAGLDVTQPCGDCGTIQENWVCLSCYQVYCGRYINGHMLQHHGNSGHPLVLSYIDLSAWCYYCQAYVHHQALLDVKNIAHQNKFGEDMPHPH
Assay: in vitro tubulin deacetylase (TDAC) assay, immunoprecipitated wild-type HDAC6F, MAP-stabilized tubulin
Type: biochemical
Conditions: TSA 300 nM or 1 μM; tubacin, niltubacin, trapoxin B 1 μM
Excerpt: Tubulin and MAPs were isolated from bovine brain as described [See http://mitchison.med.harvard.edu/protocols/tubprep.html]. Whole brain and fractions from phosphocellulose chromatography were blotted for HDAC6 and acetylated α-tubulin. Cultured hippocampal neurons from dissociated 1-day old rat brains were transfected with an enhanced green fluorescent protein (EGFP)-actin construct at 4-5 days using the calcium phosphate method [E. N. Star, D. J. Kwiatkowski and V. N. Murthy, Nat. Neurosci. […] K. Miranti and M. E. Greenberg, J. Neurosci. […] Transfected cultures were allowed to grow for at least 48 h before the addition of experimental compounds.
[^3H]Acetate-incorporated histones were isolated from butyrate-treated HeLa cells as described [J. Taunton, C. […] Immunoprecipitates were incubated with acetylated histones and HDAC activity determined by scintillation counting as described [J. Taunton, C. […] TDAC assays were performed with immunoprecipitates using MAP-stabilized microtubules polymerized from MAP-rich tubulin fraction as described [C. […] Reactions were incubated (2 h) at 37° C., then incubated on ice (15 min).

SMILES	inhibition of TDAC activity of wild-type HDAC6F
CC(/C=C/C(=O)NO)=C\[C@@H](C)C(=O)c1ccc(N(C)C)cc1 [TSA, trichostatin A, reference compound]	inhibited by TSA (300 nM) or tubacin (1 μM); also recorded: inhibited α-tubulin deacetylation
O=C(CCCCCCC(=O)Nc1ccc([C@@H]2OC(c3ccc(CO)cc3)C[C@H](CSc3nc(-c4ccccc4)c(-c4ccccc4)o3)O2)cc1)NO (some centres unmarked) [tubacin]	inhibited by TSA (300 nM) or tubacin (1 μM); also recorded: inhibited α-tubulin deacetylation
